From PubChem BioAssay (NCI)
Values joined by “and” are separate entries in the source; they are usually repeats but may differ in a detail not shown here. Equal values may be shown once.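 Protocol summary: plate cells (96-well), add compound at 5 concentrations, incubate 48 h, interpolate endpoints linearly. GI50 = concentration required for 50% inhibition of growth. TGI: total growth inhibition.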

Columns and labels:
Experiment in all cases: NCI anticancer screen, dose series, 48 h
786-0 renal = system: 786-0 renal
A498 renal = system: A498 renal
HL-60(TB) leukemia = system: HL-60(TB) leukemia
MALME-3M melanoma = system: MALME-3M melanoma
MOLT-4 leukemia = system: MOLT-4 leukemia
NCI-H226 lung = system: NCI-H226 lung
SK-MEL-28 melanoma = system: SK-MEL-28 melanoma
SN12C renal = system: SN12C renal
BT-549 breast = system: BT-549 breast
MCF7 breast = system: MCF7 breast
MDA-MB-231 breast = system: MDA-MB-231 breast

Row | SMILES | TGI (786-0 renal) | TGI (A498 renal) [µM] | TGI (HL-60(TB) leukemia) | TGI (MALME-3M melanoma) | TGI (MOLT-4 leukemia) | TGI (NCI-H226 lung) | TGI (SK-MEL-28 melanoma) | TGI (SN12C renal) | TGI (BT-549 breast) [µM] | TGI (MCF7 breast) [µM] | TGI (MDA-MB-231 breast) [µM] | GI50 (A498 renal) | GI50 (MALME-3M melanoma) | GI50 (MOLT-4 leukemia) | GI50 (HL-60(TB) leukemia) [µM] | GI50 (MCF7 breast) [µM] | GI50 (MDA-MB-231 breast) [µM] | GI50 (NCI-H226 lung) [µM] | GI50 (SN12C renal) [µM]
1 | CN1CCn2c(Br)ccc2C1=O | > 100 µM | > 100 | > 100 µM | > 100 µM | > 100 µM | > 100 µM | > 100 µM | > 100 µM |  |  |  |  |  |  |  |  |  |  | 
2 | CC1=C(C(=O)OCCc2ccc([N+](=O)[O-])cc2)C(c2ccccc2[N+](=O)[O-])C(C(=O)OC(C)C)=C(C)N1 (stereo not drawn) | 17.9 µM |  | 8.48 µM | > 100 µM | 9.93 µM | 65.3 µM | > 100 µM | > 100 µM | 71.2 | > 100 | > 100 |  |  |  |  |  |  |  | 
3 | Cc1cc2ccccc2c[n+]1CC(O)C[n+]1cc2ccccc2cc1C | > 100 µM | > 100 |  | > 100 µM | > 100 µM | > 100 µM | > 100 µM | > 100 µM | > 100 | > 100 | > 100 |  |  |  |  |  |  |  | 
4 | O=C(CC(O)(C(F)(F)F)C(F)(F)F)C(CCCl)C(O)(C(F)(F)F)C(F)(F)F (stereo not drawn) | > 100 µM | 64.8 | 86.5 µM | 76.1 µM | > 100 µM | > 100 µM | > 100 µM | 67 µM |  | > 100 | > 100 |  |  |  |  |  |  |  | 
5 | Cc1csc2c1C(=O)c1ccsc1C2=O | 16 µM | 32.5 | > 30.1 µM | 1.07 µM | 27.2 µM | 23.4 µM | 2.95 µM | 4.83 µM |  | 2.98 | 11 |  |  |  |  |  |  |  | 
6 | N#CC1=C(N)C(C#N)(C#N)C(c2ccc(F)cc2)C=C1C1CC1 (stereo not drawn) | 21.9 µM | 23.5 | 34.8 µM | 26.8 µM | 25.5 µM |  | 39.3 µM | 10.3 µM | 12.5 | 17.1 | 33.1 |  |  |  |  |  |  |  | 
7 | CCOc1ccc2[nH]c3c(C)c4cc[n+](C)cc4c(C)c3c2c1 | 1.62 µM and 2.43 µM | > 100 | 29.9 µM and > 52.2 µM | 3.18 µM and 4.52 µM | 21.6 µM and > 56 µM | 0.965 µM and 2.88 µM | 7.9 µM and 13 µM | 1.25 µM and 2.69 µM |  |  |  | 11.1 µM and 48 µM | 0.417 µM and 1.43 µM | 1.11 µM and 2.69 µM |  |  |  |  | 
8 | COC(=O)c1ccc(-c2nc(C#N)c(N)o2)cc1 | > 100 µM |  |  | > 100 µM | > 100 µM | > 100 µM | > 100 µM | > 100 µM | > 100 | > 100 | 85.8 |  |  |  |  |  |  |  | 
9 | CC(C)(CO)CNc1nc(N)nc(Cl)c1N | > 100 µM |  |  | > 100 µM | > 100 µM | > 100 µM | > 100 µM | > 100 µM | > 100 | > 100 | > 100 |  |  |  |  |  |  |  | 
10 | N#Cc1c(NC(=O)c2ccccc2)sc2c1CCC(=O)C2 |  | 41.2 | 2.96 µM | 3.92 µM | > 100 µM | 12.1 µM |  | 7.51 µM |  | 7.83 | 6.28 | 8.83 µM | 1.65 µM | 1.2 µM | 0.309 | 0.64 | 1.99 | 2.75 | 1.16
